Values quoted from earlier work in patent US20250017946A1, “COMBINATION OF A BILE ACID AND A PHENYL BUTYRATE COMPOUND FOR THE TREATMENT OF NEURODEGENERATIVE DISEASES” (Amylyx Pharmaceuticals, Inc., priority 2021, published 2025).

Test system: patient populations
Details: for less common or rare adverse events / most commonly reported adverse events: individual component, multiple patient populations

SMILES	less common or rare adverse events	most commonly reported adverse events	most common adverse reactions reported (≥1%) (use of TURSO)
O=C(O)CCCc1ccccc1 [PB, sodium phenylbutyrate]	nausea, vomiting, stomach upset, stomach pain, gastritis, headache, and skin rash	Menstrual irregularities, decreased appetite, sweat-like body odor, and bad taste	–
C[C@H](CCC(=O)NCCS(=O)(=O)O)[C@H]1CC[C@H]2[C@@H]3[C@@H](O)C[C@@H]4C[C@H](O)CC[C@]4(C)[C@H]3CC[C@]12C [TURSO, tauroursodeoxycholic acid]	skin rash and vomiting	mild diarrhea, abdominal and pain	abdominal discomfort, abdominal pain, diarrhea, nausea, pruritus, and rash
